Test results reported in patent US6683095B2, “CDK inhibitors having 3-hydroxychromen-4-one structure” (LG Life Sciences Ltd., priority 2000, dated 2004).
pIC50: −log10 of the molar value.

Assays:
[1] = target: T1, CDK4/cyclin D1 (Homo sapiens, UniProt P11802); assay: Inhibitory activity against CDK4 (CDK4/cyclin D1 kinase assay, GST-Rb substrate, 32P-ATP); type: biochemical; conditions: 100 μM ATP, 30° C., 30 minutes
T1 construct: GST; made in house; host or cells: insect cell
Protocol: (§1) The activities of CDK2/cyclin A and CDK4/cyclin D1 were determined as follows. About 100 ng of enzyme was reacted in a total 100 μl of 20 mM Tris(pH 8.0), 100 mM NaCl, 10 mM MgCl2 buffer solution containing 20 μg of GST-Rb protein, 100 μM of ATP and 5 μCi of p^32-γ-ATP at 30° C. for 30 minutes. Then, EDTA was added to a concentration of 20 mM to stop the enzyme reaction. Subsequently, 30 μl of 50% glutathione bead (purchased from Pharmacia) was added to attach GST-Rb to the bead, which was washed three times with 20 mM Tris(pH 8.0), 100 mM NaCl, 10 mM EDTA solution, and then scintillation counting was carried out. To analyze the inhibitory activity of the compound, the inhibitor having a proper concentration was added to the enzyme reaction solution, and then the enzyme activity was measured according to the above method.

[2] = target: T2, CDK2/cyclin A (Homo sapiens, UniProt P24941); assay: Inhibitory activity against CDK2 (CDK2/cyclin A kinase assay, GST-Rb substrate, 32P-ATP); type: biochemical; conditions: 100 μM ATP, 30° C., 30 minutes
T2 construct: His; made in house; host or cells: insect cell (baculovirus co-infection)
Protocol: The inhibitory activity against CDK2 was measured by referring to Kitagawa, M. et al., Oncogene 9; 2549, 1994 and that against CDK4 was measured by referring to Carlson, B. A. et al., Cancer Research 56; 2473, 1996.
The part of amino acid positions 780 to 928 of C-terminus of human Rb protein was isolated, N-terminus thereof was labelled with GST protein, large amount thereof was expressed in bacteria and purified to be used as the substrate for the enzyme.
as §1
The inhibitory activity against CDK2 and CDK4 of the compound of formula (1) according to the present invention was represented as IC50 value (see the following Table 1).

[3] = Acute oral toxicity test; conditions: mouse, in vivo; oral administration, ICR male, observed 7 days, Litchfield-Wilcoxon method
Protocol: To determine the acute oral toxicities of the test compounds, solutions containing a compound in different concentrations from each other were administered orally to ICR male with a dose of 10 ml/kg body weight. After oral administration, lethality and symptoms for 7 days were observed, and LD50 (mg/kg) was calculated according to Litchfield-Wilcoxon method.

T1 sequence (P11802 whole entry): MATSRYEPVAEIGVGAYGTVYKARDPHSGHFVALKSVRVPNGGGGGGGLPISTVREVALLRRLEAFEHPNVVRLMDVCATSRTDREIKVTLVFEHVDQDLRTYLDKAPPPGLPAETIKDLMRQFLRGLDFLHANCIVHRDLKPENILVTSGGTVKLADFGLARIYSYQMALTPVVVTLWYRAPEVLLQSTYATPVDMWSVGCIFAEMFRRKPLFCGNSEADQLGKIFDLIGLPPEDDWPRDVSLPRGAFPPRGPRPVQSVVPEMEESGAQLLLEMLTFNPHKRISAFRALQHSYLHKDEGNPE
T1 sequence (P24385 whole entry partner): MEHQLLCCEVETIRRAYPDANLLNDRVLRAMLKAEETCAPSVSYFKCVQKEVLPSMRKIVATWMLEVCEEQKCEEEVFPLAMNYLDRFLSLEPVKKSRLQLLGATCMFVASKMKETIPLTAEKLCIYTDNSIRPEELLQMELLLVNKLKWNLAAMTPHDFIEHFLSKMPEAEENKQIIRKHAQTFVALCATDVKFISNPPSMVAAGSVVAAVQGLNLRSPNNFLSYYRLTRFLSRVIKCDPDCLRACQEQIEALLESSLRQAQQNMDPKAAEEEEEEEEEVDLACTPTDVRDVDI

CNc1cc(N2CCCS2(=O)=O)c2oc(-c3ccc(O)c(Cl)c3)c(O)c(=O)c2c1 [Compound 37, 2-[2-(3-chloro-4-hydroxyphenyl)-6-(methylamino)-3-hydroxy-4-oxo-4H-chromen-8-yl]-1λ^6-isothiazolidin-1,1-dione]
pIC50 [1]: 6.74 | pIC50 [2]: 6.70 | LD50 at 7 days [3]: > 3000 mg/kg
